In patent US20240190824A1, “INHIBITORS OF TREK (TWIK RELATED K+ CHANNELS) CHANNEL FUNCTION” (ONO PHARMACEUTICAL CO., LTD., priority 2019, published 2024) one finds IC50 data, which are given here for 36 compounds.

Sequence of human TREK-1 (O95069 whole entry): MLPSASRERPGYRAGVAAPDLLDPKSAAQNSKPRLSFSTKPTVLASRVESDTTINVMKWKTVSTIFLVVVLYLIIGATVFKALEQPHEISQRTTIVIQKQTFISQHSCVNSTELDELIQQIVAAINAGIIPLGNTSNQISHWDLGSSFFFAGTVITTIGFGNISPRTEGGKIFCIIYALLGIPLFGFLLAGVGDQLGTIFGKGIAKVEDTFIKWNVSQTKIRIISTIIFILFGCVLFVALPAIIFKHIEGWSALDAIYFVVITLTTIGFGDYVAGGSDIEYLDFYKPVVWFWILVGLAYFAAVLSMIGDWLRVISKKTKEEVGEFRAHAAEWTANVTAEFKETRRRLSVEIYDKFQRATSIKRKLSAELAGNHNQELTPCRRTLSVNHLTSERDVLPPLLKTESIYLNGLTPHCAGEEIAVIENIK

The assay addresses human TREK-1 (Homo sapiens (Human), UniProt O95069). Nature of the assay: TREK-1 Thallium (Tl+) flux assay. The assay is classed as cell-based. The conditions noted are these: CHO-K1 cells stably expressing human TREK-1.
`O=C(Nc1ncc(C#Cc2ccccc2)cc1F)c1cc(-c2cnn(C3CCOCC3)c2)ccc1Cl` [Compound 55, 2-chloro-N-[3-fluoro-5-(2-phenylethynyl)-2-pyridyl]-5-(1-tetrahydropyran-4ylpyrazol-4-yl)benzamide] returned an IC50 of 100 nM.

The compound `CC(=O)Nc1ccc(Cl)c(C(=O)Nc2ccc(OCc3ccccc3)cc2C)c1` [Compound 91] had an IC50 of 1030 nM. This IC50 lies about 10-fold higher than the previous one.

In the case of `Cc1cc(OCc2ccccc2)ccc1NC(=O)c1ccc(N)cc1Cl` [Compound 89, 4-amino-N-(4-(benzyloxy)-2-methylphenyl)-2-chlorobenzamide], the IC50 was 7670 nM. This IC50 lies about 7.4-fold higher than the previous one.

`Cc1cc(C#Cc2ccccc2)cnc1NC(=O)c1cc(-c2cnn(CCN3CCOCC3)c2)ccc1Cl` [Compound 62, 2-chloro-N-[3-methyl-5-(2-phenylethynyl)-2-pyridyl]-5-[1-(2-morpholinoethyl)pyrazol-4-yl]benzamide] gave a concentration for half-maximal inhibition (IC50) of 170 nM.

For the compound `Cc1cc(OCc2ccccc2)cnc1NC(=O)c1cc(NC(=O)OC(C)(C)C)ccc1Cl` [Compound 87, tert-butyl N-[3-[(5-benzyloxy-3-methyl-2-pyridyl)carbamoyl]-4-chloro-phenyl]carbamate], half-maximal inhibition (IC50) required 560 nM.

The compound `Cc1cc(C#Cc2cccc(F)c2)cnc1NC(=O)c1cc(NC(=O)C2COCCO2)ccc1Cl` (stereo not drawn) [Compound 13, N-[4-chloro-3-[[5-[2-(3-fluorophenyl)ethynyl]-3-methyl-2-pyridyl]carbamoyl]phenyl]-1,4-dioxane-2-carboxamide] came in with an IC50 of 280 nM.

As to `Cc1cc(C#Cc2ccccc2)cnc1NC(=O)c1cc(NC(=O)OC(C)(C)C)cnc1Cl` [Compound 52, tert-butyl N-[6-chloro-5-[[3-methyl-5-(2-phenylethynyl)-2-pyridyl]carbamoyl]-3-pyridyl]carbamate], half-maximal inhibition (IC50) was put at 2170 nM. This IC50 is about 7.8-fold higher than that of the compound before.

Turning to `CC(C)(C)OC(=O)Nc1ccc(Cl)c(C(=O)Nc2ncc(-c3cnn(-c4ccccc4)c3)cc2F)c1` [Compound 97, tert-butyl N-[4-chloro-3-[[3-fluoro-5-(1-phenylpyrazol-4-yl)-2-pyridyl]carbamoyl]phenyl]carbamate], the 50% inhibitory concentration (IC50) is 290 nM.

In turn, `Cc1cc(C#Cc2ccccc2F)cnc1NC(=O)c1cc(NC(=O)OC(C)(C)C)ccc1Cl` [Compound 42, tert-butyl N-[4-chloro-3-[[5-[2-(2-fluorophenyl)ethynyl]-3-methyl-2-pyridyl]carbamoyl]phenyl]carbamate] registered a half-maximal inhibitory concentration (IC50) of 540 nM. This IC50 lies about 1.9-fold higher than the previous one.

`Cc1cc(C#Cc2ccccc2)cnc1N1Cc2ccc(OCC3CCOCC3)cc2C1=O` [Compound 82, 2-(3-methyl-5-(phenylethynyl)pyridin-2-yl)-6-((tetrahydro-2H-pyran-4-yl)methoxy)isoindolin-1-one] yielded an IC50 of 390 nM. This IC50 and that of the compound before are within 1.5-fold of each other.

Compound `Cc1cc(C#Cc2cnccn2)cnc1NC(=O)c1cc(NC(=O)OC(C)(C)C)ccc1Cl` [Compound 39, tert-butyl N-[4-chloro-3-[[3-methyl-5-(2-pyrazin-2-ylethynyl)-2-pyridyl]carbamoyl]phenyl]carbamate] returned an IC50 of 470 nM.

Regarding `Cc1cc(C#Cc2ccccc2)cnc1NC(=O)c1cc(C(=O)N2CC(C)(C)C2)ccc1Cl` [Compound 60, 2-chloro-5-(3,3-dimethylazetidine-1-carbonyl)-N-[3-methyl-5-(2-phenylethynyl)-2-pyridyl]benzamide], the half-maximal inhibitory concentration (IC50) was 140 nM.

`Cc1cc(C#Cc2ccccc2)cnc1NC(=O)c1cc(-c2cnn(C3COC3)c2)ccc1Cl` [Compound 58, 2-chloro-N-[3-methyl-5-(2-phenylethynyl)-2-pyridyl]-5-[1-(oxetan-3-yl)pyrazol-4-yl]benzamide] displayed an IC50 of 130 nM. This IC50 and that of the compound before are within 1.5-fold of each other.

The compound `Cc1cc(C#Cc2ccccc2)cnc1NC(=O)c1cc(NC(=O)[C@H]2C[C@@H]2C)ccc1Cl` [Compound 27, 2-chloro-5-[[(1S,2S)-2-methylcyclopropanecarbonyl]amino]-N-[3-methyl-5-(2-phenylethynyl)-2-pyridyl]benzamide] yielded an IC50 of 100 nM.

`Cc1cc(C#Cc2cccnc2)cnc1NC(=O)c1cc(NC(=O)OC(C)(C)C)ccc1Cl` [Compound 41, tert-butyl N-[4-chloro-3-[[3-methyl-5-[2-(3-pyridyl)ethynyl]-2-pyridyl]carbamoyl]phenyl]carbamate] gave an IC50 of 530 nM.

`Cc1cc(C#Cc2ccccc2)cnc1NC(=O)c1cc(C(=O)N2CC(F)(F)C2)ccc1Cl` [Compound 16, 2-chloro-5-(3,3-difluoroazetidine-1-carbonyl)-N-[3-methyl-5-(2-phenylethynyl)-2-pyridyl]benzamide]: half-maximal inhibition (IC50) was put at 320 nM. Against the preceding compound, the IC50 is about 1.7-fold lower.

`Cc1cc(-c2cnn(-c3ccc(F)cc3)c2)cnc1NC(=O)c1cc(NC(=O)OC(C)(C)C)ccc1Cl` [Compound 94, tert-butyl N-[4-chloro-3-[[5-[1-(4-fluorophenyl)pyrazol-4-yl]-3-methyl-2-pyridyl]carbamoyl]phenyl]carbamate] returned an IC50 of 200 nM.

In turn, `Cc1cc(C#Cc2ccccc2)cnc1N1Cc2ccc(OCC3COCCO3)cc2C1=O` (stereo not drawn) [Compound 81, 6-(1,4-dioxan-2-ylmethoxy)-2-[3-methyl-5-(2-phenylethynyl)-2-pyridyl]isoindolin-1-one] showed a half-maximal inhibitory concentration (IC50) of 360 nM. This IC50 is about 1.8-fold higher than that of the compound before.

Turning to `Cc1cc(C#Cc2ccccc2)cnc1NC(=O)c1cc(C(=O)N2CCCC2C)ccc1Cl` (stereo not drawn) [Compound 69, 2-chloro-N-[3-methyl-5-(2-phenylethynyl)-2-pyridyl]-5-(2-methylpyrrolidine-1-carbonyl)benzamide], the IC50 is 230 nM. Against the preceding compound, the IC50 is about 1.6-fold lower.

In turn, `O=C(Nc1ncc(C#Cc2ccccc2)cc1F)c1cc(-c2noc(C3CCOC3)n2)ccc1Cl` (stereo not drawn) [Compound 54] had an IC50 of 80 nM.

`Cc1cc(C#Cc2ccc(F)cc2)cnc1NC(=O)c1cc(NC(=O)C2COCCO2)ccc1Cl` (stereo not drawn) [Compound 14, N-[4-chloro-3-[[5-[2-(4-fluorophenyl)ethynyl]-3-methyl-2-pyridyl]carbamoyl]phenyl]-1,4-dioxane-2-carboxamide] showed an IC50 of 230 nM.

As to `O=C(Nc1ncc(C#Cc2ccccc2)cc1F)c1cc(NC(=O)C2(F)CC2)ccc1Cl` [Compound 6, 2-chloro-5-[(1-fluorocyclopropanecarbonyl)amino]-N-[3-fluoro-5-(2-phenylethynyl)-2-pyridyl]benzamide], the IC50 was 170 nM.

In turn, `Cc1cc(C#Cc2ccccc2)cnc1NC(=O)c1nc(NC(=O)OC(C)(C)C)ccc1Cl` [Compound 43, tert-butyl N-[5-chloro-6-[[3-methyl-5-(2-phenylethynyl)-2-pyridyl]carbamoyl]-2-pyridyl]carbamate] returned an IC50 of 550 nM.

`O=C(Nc1ncc(C#Cc2ccccc2)cc1F)c1cc(-c2cnn(C3COC3)c2)ccc1Cl` [Compound 56, 2-chloro-N-[3-fluoro-5-(2-phenylethynyl)-2-pyridyl]-5-[1-(oxetan-3-yl)pyrazol-4-yl]benzamide] gave a half-inhibitory concentration (IC50) of 110 nM.

As to `Cc1cc(C#Cc2ccccc2)cnc1NC(=O)c1cc(OCC2COCCO2)ccc1Cl` (stereo not drawn) [Compound 22, 2-chloro-5-(1,4-dioxan-2-ylmethoxy)-N-[3-methyl-5-(2-phenylethynyl)-2-pyridyl]benzamide], the midpoint of inhibition, the IC50, lay at 130 nM.

Compound `Cc1cc(C#Cc2ccccc2)cnc1NC(=O)c1c(Cl)ccc(NC(=O)OC(C)(C)C)c1F` [Compound 34, tert-butyl N-[4-chloro-2-fluoro-3-[[3-methyl-5-(2-phenylethynyl)-2-pyridyl]carbamoyl]phenyl]carbamate] returned an IC50 of 360 nM.

`O=C(Nc1ncc(C#Cc2ccc(F)cc2)cc1F)c1cc(NC(=O)C2CC2)ccc1Cl` [Compound 7, 2-chloro-5-(cyclopropanecarbonylamino)-N-[3-fluoro-5-[2-(4-fluorophenyl)ethynyl]-2-pyridyl]benzamide] gave an IC50 of 150 nM.

With `Cn1cc(-c2ccc(Cl)c(C(=O)Nc3ncc(C#Cc4ccccc4)cc3F)c2)cn1` [Compound 59, 2-chloro-N-[3-fluoro-5-(2-phenylethynyl)-2-pyridyl]-5-(1-methylpyrazol-4-yl)benzamide], half-maximal inhibition (IC50) was put at 130 nM. The IC50 values of the last two compounds are within 1.5-fold of each other.

As to `COCCOc1ccc(Cl)c(C(=O)Nc2ncc(C#Cc3ccccc3)cc2C)c1` [Compound 24, 2-chloro-5-(2-methoxyethoxy)-N-[3-methyl-5-(2-phenylethynyl)-2-pyridyl]benzamide], 230 nM corresponded to half-maximal inhibition (IC50).

`Cc1nn(C)cc1-c1ccc(Cl)c(C(=O)Nc2ncc(C#Cc3ccccc3)cc2F)c1` [Compound 68, 2-chloro-5-(1,3-dimethylpyrazol-4-yl)-N-[3-fluoro-5-(2-phenylethynyl)-2-pyridyl]benzamide] displayed an IC50 of 220 nM.

Compound `Cc1cc(C#Cc2ccccc2)cnc1NC(=O)c1cc(-c2noc(C3CCOC3)n2)ccc1Cl` (stereo not drawn) [Compound 19, 2-chloro-N-[3-methyl-5-(2-phenylethynyl)-2-pyridyl]-5-(5-tetrahydrofuran-3-yl-1,2,4-oxadiazol-3-yl)benzamide] yielded an IC50 of 50 nM.

For the compound `C[C@H]1C[C@@H]1C(=O)Nc1ccc(Cl)c(C(=O)Nc2ncc(C#Cc3ccccc3)cc2F)c1` [Compound 2, 2-chloro-N-[3-fluoro-5-(2-phenylethynyl)-2-pyridyl]-5-[[(1S,2S)-2-methylcyclopropanecarbonyl]amino]benzamide], the midpoint of inhibition, the IC50, lay at 90 nM.

The compound `Cc1cc(C#Cc2cccc(F)c2)nc(C)c1NC(=O)c1cc(NC(=O)[C@H]2C[C@@H]2C)ccc1Cl` [Compound 49, 2-chloro-N-[6-[2-(3-fluorophenyl)ethynyl]-2,4-dimethyl-3-pyridyl]-5-[[(1S,2S)-2-methylcyclopropanecarbonyl]amino] benzamide] came in with an IC50 of 1090 nM.

In the case of `Cc1cc(C#Cc2ccccc2)cnc1NC(=O)c1cc(-c2nc(C3CC3)no2)ccc1Cl` [Compound 57, 2-chloro-5-(3-cyclopropyl-1,2,4-oxadiazol-5-yl)-N-[3-methyl-5-(2-phenylethynyl)-2-pyridyl]benzamide], the 50% inhibitory concentration (IC50) amounted to 130 nM.

Compound `C[C@H]1C[C@@H]1C(=O)Nc1ccc(Cl)c(C(=O)Nc2ncc(C#Cc3cccc(F)c3)cc2F)c1` [Compound 4, 2-chloro-N-[3-fluoro-5-[2-(3-fluorophenyl)ethynyl]-2-pyridyl]-5-[[(1S,2S)-2-methylcyclopropanecarbonyl]amino]benzamide] yielded a concentration for half-maximal inhibition (IC50) of 130 nM. That is a sub-micromolar value.

For the compound `Cc1cc(C#Cc2ccccc2)cnc1NC(=O)c1cc(-c2ccnn2C)ccc1Cl` [Compound 61, 2-chloro-N-[3-methyl-5-(2-phenylethynyl)-2-pyridyl]-5-(2-methylpyrazol-3-yl)benzamide], half-maximal inhibition (IC50) required 160 nM.
